Test results published in US20160340656A1, “PEPTIDES DERIVED FROM GSE 24.2 FOR TREATING DISEASES CAUSED BY OXIDATIVE STRESS AND DAMAGE TO DNA” (CONSEJO SUPERIOR DE INVESTIGACIONES CIENTÍFICAS (CSIC), priority 2013, published 2016).

What was measured:
AT719-P cells = assay: Oxidative stress (ROS by DHE, flow cytometry) in AT719-P cells expressing GSE24.2 or GSE4; type: cell-based, human; conditions: three weeks after infection
Procedure: FIG. 11. Determination of oxidative stress levels in ataxia telangiectasia cells after expressing the peptides GSE24.2 and GSE4. AT719-P cells were infected with a lentiviral vector expressing GSE24.2, GSE4 or a GFP empty vector and three weeks later loaded with the DHE reagent that detects levels of reactive oxygen species (ROS). AT736C cells were used as a control. The relative fluorescence of the four cell lines and the proportion of cells with maximum intensity were determined by flow cytometry at wavelengths of 518 nm absorption and 605 nm emission. The data are shown as relative percentage of cells that emit at this wavelength.
(§1) As the peptide denominated GSE4 was smaller than the peptides with ability to repair telomerase activity, we studied if it had the same activity as peptide GSE24.2 for attenuating oxidative stress, expression of proinflammatory cytokines and repairing the senescence in ataxia telangiectasia cells. […] Finally, given that the increase in expression of the interleukins IL6 and IL8 are associated with a secretory phenotype linked to senescence in ataxia telangiectasia, we evaluated the ability of both peptides GSE24.2 and GSE4 to reduce senescence by evaluating senescence-associated β-galactosidase activity (SA-beta-Gal) (FIG. 13).

AT2078 AT cells = assay: Senescence-associated β-galactosidase activity in AT cells; type: cell-based, human; conditions: 3 days or eight days after infection
Source text: FIG. 13. Determination of senescence of AT cells after expressing peptides GSE24.2 and GSE4: AT2078 AT cells were infected with a lentiviral vector expressing GSE24.2, GSE4 or a GFP empty vector and 3 days or eight days later they were fixed to determine the expression of the enzyme β-galactosidase acid associated with senescence (senescence-associated β-galactosidase). Control C-1787 cells were used as the negative control. The percentage of cells expressing β-galactosidase from the total cells per field was determined. 200 cells per cell type were evaluated and the results grouped into cells showing no activity (βgal-, in division) and senescent cells (β-gal+).
as §1

IL8 = assay: Expression of proinflammatory cytokine IL8 in AT719-P cells; type: cell-based, human; conditions: relative to β-actin
Procedure: FIG. 12. Levels of expression of proinflammatory cytokines in ataxia telangiectasia cells after expressing peptides GSE24.2 and GSE4. AT719-P AT cells were infected with a lentiviral vector expressing GSE24.2, GSE4 or a GFP empty vector and three weeks later the RNA was extracted and after obtaining the corresponding cDNA, the levels of expression of the proinflammatory cytokines IL6 and IL8 were determined. AT736C cells were used as a control. The levels of expression of the gene β-actin were measured as control of expression. The results are expressed as the relative increase in the number of times of expression of each of the genes compared to β-actin, considering the levels of expression of AT736C cells as 1.
as §1

[1] = test system: AT2078 cells of patients with ataxia telangiectasia; assay: Damage to DNA in AT2078 cells: histone H2AX Ser139 foci after expression of GSE4 or SGSE4; type: cell-based, human
Procedure: FIG. 14. Determination of damage to DNA in AT cells after transfecting peptides GSE4 and SGSE4: AT2078 AT cells were infected with a lentiviral vector expressing GSE4, SGSE4 or a GFP empty vector and 24 hours later were fixed for processing and hybridised with an antibody against phosphorylated histone H2AX (Ser139). Control C-1787 cells were used as the negative control. Next they were hybridised with a fluorescein-labelled antibody and were stained with DAPI to locate the nuclei.
As the peptide denominated GSE4 was the smallest sized of the peptides with ability to inhibit damage to DNA, we studied if another peptide with a similar sequence localised in the sequence of peptide GSE24.2 had the same activity or if that activity was specific to GSE4. Peptide SGSE4 (SEQ ID No. 15) is similar to GSE4 in sequence (amino acids LDPK/LDKP that constitute consensus sequences for pseudouridine synthases) and size and is found in the TRUBII domain of dyskerin. Cell lines AT2078 of patients with ataxia telangiectasia were used for this test. Cell line C-1787 was used as the control cell line. The cells were infected with the bicistronic lentiviral vector pCMV-GFP-GSE4, SGSE4 or GFP. After 48 hours of infection the cells were fixed with formaldehyde and then permeabilized by treating them with Triton X-100. The damage to DNA was estimated by studying the signal after hybridisation of the cells with an antibody against histone H2AX Ser139 and subsequent hybridisation with an antibody bound to fluorescein. The number of foci with stain for histone H2AX per nucleus was determined by confocal microscopy in a total of 200 cells and the data represented as a percentage of cells with a specific number of foci.

HeLa cells = assay: Internalisation of fluorescein-labelled peptides, confocal fluorescence microscopy; type: cell-based
Procedure: (§2) FIG. 21. Transfection of peptides GSE4 and GSE4NLS1 in HeLa cells. Peptides GSE4 and GSE4NLS1 (SEQ ID No. 7) labelled with fluorescein and obtained by chemical synthesis were transfected into HeLa cells using the Proteojuice reagent and viewed in a confocal fluorescence microscope at 9, 24 and 48 hours after transfection.
as §2, with “22. Internalisation” for “21. Transfection”, “added to the culture medium of” for “transfected into”, “cells” for “cells using the Proteojuice reagent”
Given the ability of sequence NLS1 to contribute to the activity of GSE24.2, a synthetic peptide into which this sequence was placed in the 3′ region of peptide GSE4 was constructed as this was the peptide for which the greatest telomerase activation was obtained. The peptides obtained by chemical synthesis were labelled with fluorescein to facilitate their visualisation in a fluorescence microscope. Two experiments were performed in parallel, in one the peptides were transfected using Proteojuice reagent and in the other they were added directly to the culture medium. […] An important difference observed was that when the peptides were added directly to the culture medium, the peptide entered into a higher number of cells than when Proteojuice was used. The reagent provided greater effectiveness for internalisation but into a small number of cells.

GFINLDKPSNPSSHEVVAWIRRILRVEKTGHSGTLDPKVTGCLIVCIERATRLVK (GSE24.2; listed as Homo sapiens) [55-amino-acid peptide corresponding to the protein dyskerin; known from WO2007/090911]
reduction of levels of free radicals (AT719-P cells): ~50% | senescence: percentage of cells positive for beta-galactosidase activity (AT2078 AT cells): reduced the percentage of positive cells for beta-galactosidase activity progressively over time | reduction of levels of expression of IL8 (IL8): in the same range

GFINLDKPSNP [GSE4]
reduction of levels of free radicals (AT719-P cells): 50% | overall correction of damage to DNA [1]: 60% | AT cells in which overall damage to DNA is corrected ([1]; 200 cells): 38% | senescence: percentage of cells positive for beta-galactosidase activity (AT2078 AT cells): reduced the percentage of positive cells for beta-galactosidase activity progressively over time | reduction of levels of expression of IL8 (IL8): 90% | entry into cells (HeLa cells; peptide simply added to the culture medium): entered the cells | entry into cells (HeLa cells; transfected using Proteojuice reagent): entered the cells
